Data published in PubChem BioAssay AID2060621 (Molecular Pharmacology Branch, DTP, NCI, 2025).
Values belong to the molecule of their own block, whether it stands above or below them.

Test system: 324938-238-R-J1-PDC complex spheroids viability
Assay: Anticancer human tumor 324938-238-R-J1-PDC patient-derived bladder carcinoma cell line growth inhibition [CLK]
Settings: for IC50: curve of first compound; for viability, T/C: stronger effect = lower value
How it was run: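 Multi-cell-type spheroids combined patient-derived tumor cells with HUVEC endothelial cells and human mesenchymal stem cells. Paired agents were dosed in half-log steps down from about clinical Cmax, or from 10 microM where Cmax was unknown.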

[1] = second compound 0.0316 µM, first compound 0.0316 µM
[2] = second compound 0.0316 µM, first compound 0.1 µM
[3] = second compound 0.0316 µM, first compound 0.316 µM
[4] = second compound 0.0316 µM, first compound 1 µM
[5] = second compound 0.0316 µM, first compound 3.16 µM
[6] = second compound 0.0316 µM, first compound 10 µM
[7] = second compound 0.1 µM, first compound 0.0316 µM
[8] = second compound 0.1 µM, first compound 0.1 µM
[9] = second compound 0.1 µM, first compound 0.316 µM
[10] = second compound 0.1 µM, first compound 1 µM
[11] = second compound 0.1 µM, first compound 3.16 µM
[12] = second compound 0.1 µM, first compound 10 µM
[13] = second compound 0.316 µM, first compound 0.0316 µM
[14] = second compound 0.316 µM, first compound 0.1 µM
[15] = second compound 0.316 µM, first compound 0.316 µM
[16] = second compound 0.316 µM, first compound 1 µM
[17] = second compound 0.316 µM, first compound 3.16 µM
[18] = second compound 0.316 µM, first compound 10 µM
[19] = second compound 1 µM, first compound 0.0316 µM
[20] = second compound 1 µM, first compound 0.1 µM
[21] = second compound 1 µM, first compound 0.316 µM
[22] = second compound 1 µM, first compound 1 µM
[23] = second compound 1 µM, first compound 3.16 µM
[24] = second compound 1 µM, first compound 10 µM
[25] = second compound 3.16 µM, first compound 0.0316 µM
[26] = second compound 3.16 µM, first compound 0.1 µM
[27] = second compound 3.16 µM, first compound 0.316 µM
[28] = second compound 3.16 µM, first compound 1 µM
[29] = second compound 3.16 µM, first compound 3.16 µM
[30] = second compound 3.16 µM, first compound 10 µM
[31] = second compound 10 µM, first compound 0.0316 µM
[32] = second compound 10 µM, first compound 0.1 µM
[33] = second compound 10 µM, first compound 0.316 µM
[34] = second compound 10 µM, first compound 1 µM
[35] = second compound 10 µM, first compound 3.16 µM
[36] = second compound 10 µM, first compound 10 µM
[37] = second compound 0.0316 µM, first compound 0.00316 µM
[38] = second compound 0.0316 µM, first compound 0.01 µM
[39] = second compound 0.1 µM, first compound 0.00316 µM
[40] = second compound 0.1 µM, first compound 0.01 µM
[41] = second compound 0.316 µM, first compound 0.00316 µM
[42] = second compound 0.316 µM, first compound 0.01 µM
[43] = second compound 1 µM, first compound 0.00316 µM
[44] = second compound 1 µM, first compound 0.01 µM
[45] = second compound 3.16 µM, first compound 0.00316 µM
[46] = second compound 3.16 µM, first compound 0.01 µM
[47] = second compound 10 µM, first compound 0.00316 µM
[48] = second compound 10 µM, first compound 0.01 µM
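Also: viability read after seven days of drug exposure.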
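For viability, T/C in this document: 100% = DMSO vehicle control wells.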

IC50 (second compound 0.0316 µM): < 31.6 nM
IC50 (second compound 0.1 µM): < 31.6 nM
IC50 (second compound 0.316 µM): < 31.6 nM
IC50 (second compound 1 µM): < 31.6 nM
IC50 (second compound 3.16 µM): < 31.6 nM
IC50 (second compound 10 µM): < 31.6 nM
Compound: CC(=O)O[C@H]1C(=O)[C@@]2(C)[C@H]([C@H](OC(=O)c3ccccc3)[C@]3(O)C[C@H](OC(=O)[C@H](O)[C@@H](NC(=O)c4ccccc4)c4ccccc4)C(C)=C1C3(C)C)[C@]1(OC(C)=O)CO[C@@H]1C[C@@H]2O + CNC(=O)c1ccc(Nc2nc(OC3CCCC3)c3c(-c4ccc5nc(C)oc5c4)c[nH]c3n2)c(OC)c1
viability, T/C [1]: 14.3%
viability, T/C [2]: 15.1%
viability, T/C [3]: 13.8%
viability, T/C [4]: 14.1%
viability, T/C [5]: 17.1%
viability, T/C [6]: 22%
viability, T/C [7]: 19.8%
viability, T/C [8]: 17.3%
viability, T/C [9]: 22.2%
viability, T/C [10]: 21.9%
viability, T/C [11]: 27.4%
viability, T/C [12]: 35.1%
viability, T/C [13]: 16.9%
viability, T/C [14]: 17.5%
viability, T/C [15]: 26.2%
viability, T/C [16]: 27.8%
viability, T/C [17]: 35.2%
viability, T/C [18]: 37%
viability, T/C [19]: 17.1%
viability, T/C [20]: 17.7%
viability, T/C [21]: 23.9%
viability, T/C [22]: 24.2%
viability, T/C [23]: 31.9%
viability, T/C [24]: 28.6%
viability, T/C [25]: 16.6%
viability, T/C [26]: 18.2%
viability, T/C [27]: 20.1%
viability, T/C [28]: 24.6%
viability, T/C [29]: 27.2%
viability, T/C [30]: 27.2%
viability, T/C [31]: 16.9%
viability, T/C [32]: 18.1%
viability, T/C [33]: 20.6%
viability, T/C [34]: 23.5%
viability, T/C [35]: 25.1%
viability, T/C [36]: 25.6%

IC50 (second compound 0.0316 µM): < 3.16 nM
IC50 (second compound 0.1 µM): < 3.16 nM
IC50 (second compound 0.316 µM): < 3.16 nM
IC50 (second compound 1 µM): < 3.16 nM
IC50 (second compound 3.16 µM): < 3.16 nM
IC50 (second compound 10 µM): < 3.16 nM
Compound: CCc1c2c(nc3ccc(O)cc13)-c1cc3c(c(=O)n1C2)COC(=O)[C@]3(O)CC + CNC(=O)c1ccc(Nc2nc(OC3CCCC3)c3c(-c4ccc5nc(C)oc5c4)c[nH]c3n2)c(OC)c1
viability, T/C [37]: 17.9%
viability, T/C [38]: 12.3%
viability, T/C [1]: 12.7%
viability, T/C [2]: 13%
viability, T/C [3]: 11.2%
viability, T/C [4]: 2.24%
viability, T/C [39]: 17.9%
viability, T/C [40]: 13.3%
viability, T/C [7]: 12.5%
viability, T/C [8]: 12.7%
viability, T/C [9]: 11.3%
viability, T/C [10]: 2.05%
viability, T/C [41]: 14.6%
viability, T/C [42]: 11.1%
viability, T/C [13]: 11.8%
viability, T/C [14]: 12.1%
viability, T/C [15]: 9.98%
viability, T/C [16]: 1.99%
viability, T/C [43]: 12.2%
viability, T/C [44]: 9.22%
viability, T/C [19]: 10.1%
viability, T/C [20]: 8.69%
viability, T/C [21]: 8.5%
viability, T/C [22]: 1.33%
viability, T/C [45]: 11.4%
viability, T/C [46]: 9.74%
viability, T/C [25]: 8.18%
viability, T/C [26]: 8%
viability, T/C [27]: 6.57%
viability, T/C [28]: 1.29%
viability, T/C [47]: 10.2%
viability, T/C [48]: 10.8%
viability, T/C [31]: 8.22%
viability, T/C [32]: 8.16%
viability, T/C [33]: 6.28%
viability, T/C [34]: 1.01%

IC50 (second compound 0.0316 µM): 11.9 nM
IC50 (second compound 0.1 µM): < 0.316 nM
IC50 (second compound 0.316 µM): < 0.316 nM
IC50 (second compound 1 µM): < 0.316 nM
IC50 (second compound 3.16 µM): < 0.316 nM
IC50 (second compound 10 µM): < 0.316 nM
Compound: Cn1ncnc1[C@H]1c2n[nH]c(=O)c3cc(F)cc(c23)N[C@@H]1c1ccc(F)cc1 + CNC(=O)c1ccc(Nc2nc(OC3CCCC3)c3c(-c4ccc5nc(C)oc5c4)c[nH]c3n2)c(OC)c1
viability, T/C (second compound 0.0316 µM, first compound 0.000316 µM): 83%
viability, T/C (second compound 0.0316 µM, first compound 0.001 µM): 89.5%
viability, T/C [37]: 66.3%
viability, T/C [38]: 54.8%
viability, T/C [1]: 35.1%
viability, T/C [2]: 26.6%
viability, T/C (second compound 0.1 µM, first compound 0.000316 µM): 26.2%
viability, T/C (second compound 0.1 µM, first compound 0.001 µM): 26.5%
viability, T/C [39]: 21.8%
viability, T/C [40]: 21%
viability, T/C [7]: 20.4%
viability, T/C [8]: 20.7%
viability, T/C (second compound 0.316 µM, first compound 0.000316 µM): 17.8%
viability, T/C (second compound 0.316 µM, first compound 0.001 µM): 20.8%
viability, T/C [41]: 16.7%
viability, T/C [42]: 18.7%
viability, T/C [13]: 19.8%
viability, T/C [14]: 17.4%
viability, T/C (second compound 1 µM, first compound 0.000316 µM): 16.5%
viability, T/C (second compound 1 µM, first compound 0.001 µM): 15.4%
viability, T/C [43]: 14.7%
viability, T/C [44]: 13.9%
viability, T/C [19]: 14.8%
viability, T/C [20]: 15.9%
viability, T/C (second compound 3.16 µM, first compound 0.000316 µM): 17.5%
viability, T/C (second compound 3.16 µM, first compound 0.001 µM): 19.6%
viability, T/C [45]: 15.4%
viability, T/C [46]: 17%
viability, T/C [25]: 18%
viability, T/C [26]: 15.4%
viability, T/C (second compound 10 µM, first compound 0.000316 µM): 18.2%
viability, T/C (second compound 10 µM, first compound 0.001 µM): 18.8%
viability, T/C [47]: 18.9%
viability, T/C [48]: 17.8%
viability, T/C [31]: 18.7%
viability, T/C [32]: 17.3%

IC50 (second compound 0.0316 µM): < 31.6 nM
IC50 (second compound 0.1 µM): < 31.6 nM
IC50 (second compound 0.316 µM): < 31.6 nM
IC50 (second compound 1 µM): < 31.6 nM
IC50 (second compound 3.16 µM): < 31.6 nM
IC50 (second compound 10 µM): < 31.6 nM
Compound: Nc1ccn(C2OC(CO)C(O)C2(F)F)c(=O)n1 (stereo not given) + CNC(=O)c1ccc(Nc2nc(OC3CCCC3)c3c(-c4ccc5nc(C)oc5c4)c[nH]c3n2)c(OC)c1
viability, T/C [1]: 38.6%
viability, T/C [2]: 16.4%
viability, T/C [3]: 15.2%
viability, T/C [4]: 14%
viability, T/C [5]: 10.6%
viability, T/C [6]: 8.72%
viability, T/C [7]: 23%
viability, T/C [8]: 18.8%
viability, T/C [9]: 12.8%
viability, T/C [10]: 14.2%
viability, T/C [11]: 10.3%
viability, T/C [12]: 7.12%
viability, T/C [13]: 17.1%
viability, T/C [14]: 14.8%
viability, T/C [15]: 12.3%
viability, T/C [16]: 12.5%
viability, T/C [17]: 8.68%
viability, T/C [18]: 7.82%
viability, T/C [19]: 15%
viability, T/C [20]: 15.4%
viability, T/C [21]: 12.2%
viability, T/C [22]: 11.6%
viability, T/C [23]: 9.63%
viability, T/C [24]: 8.24%
viability, T/C [25]: 17.1%
viability, T/C [26]: 13.7%
viability, T/C [27]: 13%
viability, T/C [28]: 12%
viability, T/C [29]: 8.99%
viability, T/C [30]: 9.03%
viability, T/C [31]: 18%
viability, T/C [32]: 12.9%
viability, T/C [33]: 14.3%
viability, T/C [34]: 12.1%
viability, T/C [35]: 13.4%
viability, T/C [36]: 8.05%

IC50 (second compound 0.0316 µM): 256 nM
IC50 (second compound 0.1 µM): < 31.6 nM
IC50 (second compound 0.316 µM): < 31.6 nM
IC50 (second compound 1 µM): < 31.6 nM
IC50 (second compound 3.16 µM): < 31.6 nM
IC50 (second compound 10 µM): < 31.6 nM
Compound: O=c1[nH]cc(F)c(=O)[nH]1 + CNC(=O)c1ccc(Nc2nc(OC3CCCC3)c3c(-c4ccc5nc(C)oc5c4)c[nH]c3n2)c(OC)c1
viability, T/C [1]: 80.6%
viability, T/C [2]: 77.5%
viability, T/C [3]: 43.5%
viability, T/C [4]: 28.6%
viability, T/C [5]: 22.2%
viability, T/C [6]: 25.1%
viability, T/C [7]: 25.2%
viability, T/C [8]: 24%
viability, T/C [9]: 23.8%
viability, T/C [10]: 19.8%
viability, T/C [11]: 15.7%
viability, T/C [12]: 17.5%
viability, T/C [13]: 19.6%
viability, T/C [14]: 18.5%
viability, T/C [15]: 16.2%
viability, T/C [16]: 14.7%
viability, T/C [17]: 14.3%
viability, T/C [18]: 14.7%
viability, T/C [19]: 16.1%
viability, T/C [20]: 15.2%
viability, T/C [21]: 15.4%
viability, T/C [22]: 13.8%
viability, T/C [23]: 10.5%
viability, T/C [24]: 9.31%
viability, T/C [25]: 15.3%
viability, T/C [26]: 14.8%
viability, T/C [27]: 14%
viability, T/C [28]: 12.7%
viability, T/C [29]: 11.2%
viability, T/C [30]: 11.1%
viability, T/C [31]: 17.8%
viability, T/C [32]: 15.3%
viability, T/C [33]: 15.1%
viability, T/C [34]: 16.6%
viability, T/C [35]: 12.6%
viability, T/C [36]: 10.3%
